Experiment [1] has as its target T1, recombinant guanylate cyclase reporter cell line (Rattus norvegicus, UniProt P19686+P20595).
T1 construct: expressed in transfected cells
T1 sequence (P19686 1-690): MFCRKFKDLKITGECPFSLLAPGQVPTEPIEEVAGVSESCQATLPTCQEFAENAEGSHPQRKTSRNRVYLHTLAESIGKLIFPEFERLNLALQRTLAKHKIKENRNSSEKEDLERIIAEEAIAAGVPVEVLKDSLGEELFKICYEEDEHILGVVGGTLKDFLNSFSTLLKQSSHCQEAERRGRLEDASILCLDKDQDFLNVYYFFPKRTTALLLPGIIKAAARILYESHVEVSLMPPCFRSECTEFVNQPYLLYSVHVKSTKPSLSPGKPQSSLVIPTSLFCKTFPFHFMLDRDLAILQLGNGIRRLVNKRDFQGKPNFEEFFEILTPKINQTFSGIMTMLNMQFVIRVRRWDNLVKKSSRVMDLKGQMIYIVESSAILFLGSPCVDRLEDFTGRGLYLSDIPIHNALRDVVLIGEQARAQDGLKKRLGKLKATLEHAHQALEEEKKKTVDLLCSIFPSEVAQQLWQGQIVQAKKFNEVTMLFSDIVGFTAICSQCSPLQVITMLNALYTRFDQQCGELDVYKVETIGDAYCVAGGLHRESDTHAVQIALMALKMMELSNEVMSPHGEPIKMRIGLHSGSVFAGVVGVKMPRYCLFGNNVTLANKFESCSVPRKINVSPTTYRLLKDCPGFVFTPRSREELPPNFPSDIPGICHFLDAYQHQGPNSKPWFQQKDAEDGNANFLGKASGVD
T1 sequence (P20595 1-619): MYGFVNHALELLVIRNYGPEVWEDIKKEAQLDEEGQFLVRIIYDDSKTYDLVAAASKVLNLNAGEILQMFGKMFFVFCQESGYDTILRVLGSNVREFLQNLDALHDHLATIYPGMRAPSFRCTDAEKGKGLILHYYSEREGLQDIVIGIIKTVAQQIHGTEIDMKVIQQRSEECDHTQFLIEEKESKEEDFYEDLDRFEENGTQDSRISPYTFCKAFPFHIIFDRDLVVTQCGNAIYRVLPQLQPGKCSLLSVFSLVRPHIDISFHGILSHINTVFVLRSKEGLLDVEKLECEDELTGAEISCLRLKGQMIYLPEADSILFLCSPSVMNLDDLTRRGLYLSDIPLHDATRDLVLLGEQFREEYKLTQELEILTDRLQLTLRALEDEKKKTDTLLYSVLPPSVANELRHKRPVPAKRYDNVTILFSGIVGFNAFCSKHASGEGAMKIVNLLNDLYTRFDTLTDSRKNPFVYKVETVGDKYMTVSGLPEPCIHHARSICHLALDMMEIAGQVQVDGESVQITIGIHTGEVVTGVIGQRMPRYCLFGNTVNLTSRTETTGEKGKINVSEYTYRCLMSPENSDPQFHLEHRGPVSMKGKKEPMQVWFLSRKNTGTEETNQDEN
In words: Effect on a recombinant guanylate cyclase reporter cell line. In kind it is cell-based. As to conditions: MEC = minimum effective concentration; in some cases means of individual determinations. The method in brief: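 Cellular activity measured in a recombinant rat soluble guanylate cyclase reporter cell line. Values are minimum effective concentration (MEC), some given as means of individual determinations.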

Experiment [2] addresses T2, human phosphodiesterase 5 (PDE 5) (Homo sapiens, UniProt O76074).
T2 construct: PDE 5 preparations are obtained from human platelets by disruption; from tissue; host or cells: human platelets
In words: Inhibition of human phosphodiesterase 5 (PDE 5). In kind it is biochemical. Conditions: PDE 5 preparation from human platelets; in some cases means of individual determinations. Put shortly:
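Enzyme partially purified from human platelets by Mono Q ion exchange, diluted so that under 70% of substrate converts. [8-3H]cGMP at 0.025 μCi per well in Tris pH 7.5 with MgCl2/EDTA, 60 min at room temperature, yttrium SPA bead read-out. Final compound concentrations 4–0.0018 μM; IC50 from concentration–inhibition plot.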

pIC50: −log10 of the molar value.

What is called pIC50 is the negative decadic logarithm of the IC50, by convention in mol/L. `C[S+]([O-])CCNC(=O)c1nc(-c2nn(Cc3ccccc3F)c3ncccc23)nc2c1C(C)(C)C(=O)N2` (centres unmarked) [Example 64, 2-[1-(2-fluorobenzyl)-1H-pyrazolo[3,4-b]pyridin-3-yl]-5,5-dimethyl-N-[2-(methylsulfinyl)ethyl]-6-oxo-6,7-dihydro-5H-pyrrolo[2,3-d]pyrimidine-4-carboxamide]: in experiment [1], the MEC was determined as 1 µM. The pIC50 in experiment [2] is 7.13.
For `CC(N)(CNC(=O)c1nc(-c2nn(Cc3ncccc3F)c3ncc(F)cc23)nc2c1C(C)(C)C(=O)N2)CC(F)F` (single isomer, unassigned) [Example 56], the MEC in experiment [1] is 3 µM. This compound gave a negative-log IC50 (pIC50) in experiment [2] of 6.92.
For `CC1(C)C(=O)Nc2nc(-c3nn(Cc4ccccc4F)c4ncccc34)nc(C(=O)NCCO)c21` [Example 114, 2-[1-(2-fluorobenzyl)-1H-pyrazolo[3,4-b]pyridin-3-yl]-N-(2-hydroxyethyl)-5,5-dimethyl-6-oxo-6,7-dihydro-5H-pyrrolo[2,3-d]pyrimidine-4-carboxamide], in that order: 0.3 µM and 7.82.
In the case of `Cc1nc2c(cc1F)c(-c1nc3c(c(C(=O)NCC(C)(N)CC(F)F)n1)C(C)(C)C(=O)N3)nn2Cc1cccc(F)c1F` (single isomer, unassigned) [Example 58], in experiment [1], the MEC stood at 1 µM. This compound showed a pIC50 in experiment [2] of 7.07.
As for `CC1(C)C(=O)Nc2nc(-c3nn(Cc4ccccc4F)c4ncccc34)nc(C(=O)Nc3cccnc3)c21` [Example 89, 2-[1-(2-fluorobenzyl)-1H-pyrazolo[3,4-b]pyridin-3-yl]-5,5-dimethyl-6-oxo-N-(pyridin-3-yl)-6,7-dihydro-5H-pyrrolo[2,3-d]pyrimidine-4-carboxamide], in experiment [1], the MEC was determined as 0.3 µM. The pIC50 in experiment [2] is 8.05.
For the compound `CC1(C)C(=O)Nc2nc(-c3nn(Cc4ccccc4F)c4ncccc34)nc(C(=O)Nc3cnccn3)c21` [Example 108, 2-[1-(2-fluorobenzyl)-1H-pyrazolo[3,4-b]pyridin-3-yl]-5,5-dimethyl-6-oxo-N-(pyrazin-2-yl)-6,7-dihydro-5H-pyrrolo[2,3-d]pyrimidine-4-carboxamide], in experiment [1], the MEC was determined as 0.3 µM. This compound also gave a pIC50 in experiment [2] of 7.60.
For `COCCNC(=O)c1nc(-c2nn(Cc3ccccc3F)c3ncccc23)nc2c1C(C)(C)C(=O)N2` [Example 127, 2-[1-(2-fluorobenzyl)-1H-pyrazolo[3,4-b]pyridin-3-yl]-N-(2-methoxyethyl)-5,5-dimethyl-6-oxo-6,7-dihydro-5H-pyrrolo[2,3-d]pyrimidine-4-carboxamide], in that order: 0.1 µM and 7.80.
For `CC1(C)C(=O)Nc2nc(-c3nn(Cc4ccccc4F)c4ncccc34)nc(C(=O)Nc3nnc[nH]3)c21` [Example 94, 2-[1-(2-fluorobenzyl)-1H-pyrazolo[3,4-b]pyridin-3-yl]-5,5-dimethyl-6-oxo-N-(4H-1,2,4-triazol-3-yl)-6,7-dihydro-5H-pyrrolo[2,3-d]pyrimidine-4-carboxamide], in that order: 0.3 µM and 7.80.
Taken in the same sequence, the figures for `CC1(C)C(=O)Nc2nc(-c3nn(Cc4ncccc4F)c4ncc(F)cc34)nc(C(=O)NC3CC3)c21` [Example 32] were 1 µM and 7.92.
Regarding `CC(C)CNC(=O)c1nc(-c2nn(Cc3ccccc3F)c3ncccc23)nc2c1C(C)(C)C(=O)N2` [Example 122, 2-[1-(2-fluorobenzyl)-1H-pyrazolo[3,4-b]pyridin-3-yl]-5,5-dimethyl-N-(2-methylpropyl)-6-oxo-6,7-dihydro-5H-pyrrolo[2,3-d]pyrimidine-4-carboxamide], the MEC in experiment [1] was determined as 0.1 µM. This compound also gave a pIC50 in experiment [2] of 7.70.
For `CCNC(=O)c1nc(-c2nn(Cc3ccccc3F)c3ncccc23)nc2c1C(C)(C)C(=O)N2` [Example 129, N-ethyl-2-[1-(2-fluorobenzyl)-1H-pyrazolo[3,4-b]pyridin-3-yl]-5,5-dimethyl-6-oxo-6,7-dihydro-5H-pyrrolo[2,3-d]pyrimidine-4-carboxamide], in that order: 0.1 µM and 8.00.
Taken in the same sequence, the figures for `CC1(C)C(=O)Nc2nc(-c3nn(Cc4ccccc4F)c4ncccc34)nc(C(=O)NC3CCOC3)c21` (racemic) [Example 65, rac-2-[1-(2-fluorobenzyl)-1H-pyrazolo[3,4-b]pyridin-3-yl]-5,5-dimethyl-6-oxo-N-(tetrahydrofuran-3-yl)-6,7-dihydro-5H-pyrrolo[2,3-d]pyrimidine-4-carboxamide] were 1 µM and 8.17.
Taken in the same sequence, the figures for `Cc1nc2c(cc1F)c(-c1nc3c(c(C(N)=O)n1)C(C)(C)C(=O)N3)nn2Cc1c(F)ccc(F)c1F` [Example 6, 2-[5-Fluoro-6-methyl-1-(2,3,6-trifluorobenzyl)-1H-pyrazolo[3,4-b]pyridin-3-yl]-5,5-dimethyl-6-oxo-6,7-dihydro-5H-pyrrolo[2,3-d]pyrimidine-4-carboxamide] were 0.2 µM and 6.85.
Take `CNC(=O)c1nc(-c2nn(Cc3ccccc3F)c3ncccc23)nc2c1C(C)(C)C(=O)N2` [Example 86, 2-[1-(2-fluorobenzyl)-1H-pyrazolo[3,4-b]pyridin-3-yl]-N,5,5-trimethyl-6-oxo-6,7-dihydro-5H-pyrrolo[2,3-d]pyrimidine-4-carboxamide]: the MEC in experiment [1] is 0.1 µM. The compound further gave a pIC50 in experiment [2] of 7.36.
For `CCOCCCNC(=O)c1nc(-c2nn(Cc3ccccc3F)c3ncccc23)nc2c1C(C)(C)C(=O)N2` [Example 123, N-(3-ethoxypropyl)-2-[1-(2-fluorobenzyl)-1H-pyrazolo[3,4-b]pyridin-3-yl]-5,5-dimethyl-6-oxo-6,7-dihydro-5H-pyrrolo[2,3-d]pyrimidine-4-carboxamide], in that order: 0.1 µM and 7.59.
Taken in the same sequence, the figures for `Cc1cccnc1NC(=O)c1nc(-c2nn(Cc3ccccc3F)c3ncccc23)nc2c1C(C)(C)C(=O)N2` [Example 113, 2-[1-(2-fluorobenzyl)-1H-pyrazolo[3,4-b]pyridin-3-yl]-5,5-dimethyl-N-(3-methylpyridin-2-yl)-6-oxo-6,7-dihydro-5H-pyrrolo[2,3-d]pyrimidine-4-carboxamide] were 0.1 µM and 7.36.
For `Cn1ccc(NC(=O)c2nc(-c3nn(Cc4ccccc4F)c4ncccc34)nc3c2C(C)(C)C(=O)N3)n1` [Example 70, 2-[1-(2-fluorobenzyl)-1H-pyrazolo[3,4-b]pyridin-3-yl]-5,5-dimethyl-N-(1-methyl-1H-pyrazol-3-yl)-6-oxo-6,7-dihydro-5H-pyrrolo[2,3-d]pyrimidine-4-carboxamide], in that order: 0.3 µM and 7.62.
For the compound `CC1(C)C(=O)Nc2nc(-c3nn(Cc4ccccc4F)c4ncccc34)nc(C(=O)NCc3ccncc3)c21` [Example 118, 2-[1-(2-fluorobenzyl)-1H-pyrazolo[3,4-b]pyridin-3-yl]-5,5-dimethyl-6-oxo-N-(pyridin-4-ylmethyl)-6,7-dihydro-5H-pyrrolo[2,3-d]pyrimidine-4-carboxamide], the MEC in experiment [1] amounted to 0.1 µM. Further, the pIC50 in experiment [2] is 7.68.
As to `Cc1nc2c(cc1F)c(-c1nc3c(c(C(N)=O)n1)C(C)(C(F)(F)F)C(=O)N3)nn2Cc1ncccc1F` (single isomer, unassigned; ent-2) [Example 19, ent-2-{5-Fluoro-1-[(3-fluoropyridin-2-yl)methyl]-6-methyl-1H-pyrazolo[3,4-b]pyridin-3-yl}-5-methyl-6-oxo-5-(trifluoromethyl)-6,7-dihydro-5H-pyrrolo[2,3-d]pyrimidine-4-carboxamide (enantiomer A)], the MEC in experiment [1] came to 10 µM. For the same compound, the pIC50 in experiment [2] was 6.66.

Values taken from patent US20170233413A1, “SUBSTITUTED ANNULATED PYRIMIDINES AND USE THEREOF” (Bayer Pharma Aktiengesellschaft, priority 2014, published 2017).
